Assay results from patent US20240009174A1, “METHODS FOR DISRUPTING MITOCHONDRIAL UNFOLDED PROTEIN RESPONSE” (Health Research, Inc., priority 2020, published 2024).
Each block holds one molecule with its values, some of them ahead of it.

What was measured:
Type in all cases: cell-based
c-Myc = target: T1, c-Myc (Homo sapiens, UniProt P01106); experiment: HSP60 and ClpP expression after c-Myc inhibitor; details: LNCaP and PC-3 cells, 50 μM, 24 hrs
T1 construct: endogenous in cells; host or cells: LNCaP and PC-3 cells
Text: FIG. 4. HSP60 regulate ClpP expression but not vice versa. (A) HSP60 and ClpP stable knockdown LNCaP and PC-3 cells were generated using shRNA and analyzed for HSP60 and ClpP expression levels. Actin serves as loading control. (B-C) HSP60 and ClpP knockdown LNCaP and PC-3 cells were crosslinked with EGS, lysed and protein samples run on an SDS-PAGE gel as described in material and methods. Membranes were probed with either ClpP or HSP60 antibody to analyze the oligomerization status of these proteins. (D) Enzymatic activity of ClpP was assayed from mitochondrial pellets isolated from HSP60 knockdown PC-3 cells and DU145 Hsp60^+/− cells. (E) HSP60 was overexpressed in PC-3 cells and analyzed for ClpP expression. Actin serves as loading control. (F) ClpP was overexpressed in LNCaP, DU145 and PC-3 cells and analyzed for HSP60 expression. Actin serves as loading control. […] Whole cell lysates were prepared and analyzed for HSP60 and ClpP expression. […] (H) c-Myc binding efficiency with ClpP promoter in HSP60 knockdown LNCaP and PC-3 cells was determined using chromatin immunoprecipitation (ChIP) assay using specific primers. […]
HSP60 regulates expression of ClpP via c-Myc but not vice versa. […] To confirm that c-Myc is a regulator for ClpP expression, PCa cells were treated with c-Myc pharmacological inhibitor 10058-F4 and analyzed ClpP expression levels. […]

LNCaP and PC-3 cells = experiment: Rescue of DCEM1-induced cell death by ROS quenchers (MTT cell viability)
Description: FIG. 6. Pharmacological inhibition of HSP60-ClpP interaction induces UPR^mt and PCa cell death. (A) Docking of DCEM1 into apical domain of HSP60. (B) LNCaP and PC-3 cells were treated with DCEM1 for 24 hours and HSP60-ClpP interaction was analyzed by co-immunoprecipitation assay. (C) LNCaP and PC-3 cells were treated with DCEM1 for 24 hours and mitoROS levels were analyzed by flow cytometry using mitoSOX dye. (D) LNCaP and PC-3 cells were treated with DCEM1 for 24 hours and poly-Ub protein levels were analyzed by western blotting. (E) LNCaP and PC-3 cells were treated with DCEM1 for 24 and 48 hours and apoptotic cell populations were analyzed by flow cytometry using Annexin V FITC/PI method as explained in materials and methods. In (E) top panel, the bars in each series from left to right are control, 5, 10, and 20, and in (E) bottom panel, the bars in each series from left to right are DMSO, 5, 10, and 20. (F) LNCaP and PC-3 cells were treated with DCEM1 for 24 and 48 hours and lysates were prepared and analyzed for DEVDase activity using specific peptide substrate. […] (G) LNCaP and PC-3 cells were pre-treated with SKQ1 followed by DCEM1 treatment and analyzed for cell viability by MTT assay. (H) LNCaP and PC-3 cells were treated with either DCEM1 or H2O2 (200 μM) for 24 hours and total DNA were isolated and analyzed for mtDNA damage as described in materials and methods. […]

HSP60-silenced cells = experiment: Cell death in HSP60-silenced cells versus mock cells
Text: Although cancer cells prefer aerobic glycolysis for energy, continual production of ATP via OXPHOS system is still required for rapid cancer cell survival and growth. ClpP along with LonP1 degrades Complex I during stress to alleviate mtROS, thus promoting cell survival. HSP60-silencing or inhibition of HSP60-ClpP interaction by DCEM1 contribute to mtROS buildup and mitotoxicity due to inhibition of ClpP function or ClpP-deficiency because ClpP is no longer available/functional in alleviating mtROS production and degrading unfolded protein in mitochondria leading to collapse of mitochondrial function and homeostasis. […] Mitochondrial proteases such as ClpP trigger mitochondria-to-nuclear signaling pathway and UPR^mt activation. Inhibition of ClpP expression and function by HSP60-silencing or HSP60 inhibitor such as DCEM1 may abolish mito-nuclear crosstalk leading to inhibition of retrograde signaling. Inhibition of HSP60 renders mitochondria in a fragile and dysfunctional state leading to enhanced apoptosis and blockage of cellular proliferation. Therefore, chemotherapeutic agents along with HSP60 inhibition may provide a novel combination for therapeutic benefits in PCa.

[1] = system: mitochondrial chaperonin activity in PCa cells; experiment: Mitochondrial Chaperonin Activity Assay (MiCAA); details: 24 h
Description: FIG. 10. Mitochondrial Chaperonin Activity Assay (MiCAA). PCa cells were treated with either DCEM1 (A) or ETB or Mizoribine (B) for 24 h and mitochondrial (Mito) chaperonin activity was analyzed as described in material and methods. In another experiment, PCa cells were transfected with siRNA to target HSP60 mRNA and mitochondrial chaperonin activity was analyzed (C). In (A), the bars in each series from left to right are DMSO and DCEM1. In (B), the bars in each series from left to right are DMSO, ETB, and MZR. In (C), the bars in each series from left to right are siMock, siHSP60-1, and siHSP60-2.
Since HSP60 chaperonin system is crucial for maintaining mitochondrial homeostasis in normal cells, a novel method, Mitochondrial Chaperonin Activity Assay (MiCAA), was developed to analyze chaperonin activity in live cells using flow cytometry to evaluate whether DCEM1 modulates mitochondrial chaperonin activity.

T1 sequence (P01106 whole entry): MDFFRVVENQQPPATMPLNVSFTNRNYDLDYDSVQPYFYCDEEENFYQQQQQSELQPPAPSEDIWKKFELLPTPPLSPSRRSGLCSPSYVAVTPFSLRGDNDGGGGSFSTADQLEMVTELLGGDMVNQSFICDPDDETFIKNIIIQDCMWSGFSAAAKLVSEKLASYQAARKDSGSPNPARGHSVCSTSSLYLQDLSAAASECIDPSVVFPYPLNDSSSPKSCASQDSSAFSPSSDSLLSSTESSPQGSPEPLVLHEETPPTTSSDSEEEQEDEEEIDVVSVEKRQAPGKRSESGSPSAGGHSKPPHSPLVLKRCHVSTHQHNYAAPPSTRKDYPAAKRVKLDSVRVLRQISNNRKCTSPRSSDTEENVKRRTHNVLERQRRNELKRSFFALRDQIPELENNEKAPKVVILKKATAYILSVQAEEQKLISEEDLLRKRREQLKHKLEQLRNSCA

ClpP expression (c-Myc): downregulate ClpP expression
HSP60 expression (c-Myc): without affecting HSP60 expression
SMILES: CCc1ccc(/C=C2/SC(=S)NC2=O)cc1 [10058-F4]

SMILES: CC(=O)N[C@@H](CS)C(=O)O [NAC]
effect of NAC pre-treatment on DCEM1-induced cell death (LNCaP and PC-3 cells; PCa cells, data not shown): antagonizes DCEM1-induced cell death

SMILES: CC1=C(C)C(=O)C(CCCCCCCCCC[P+](c2ccccc2)(c2ccccc2)c2ccccc2)=CC1=O [SKQ1]
effect of mitoROS quencher pre-treatment on DCEM1-induced cell death (LNCaP and PC-3 cells; LNCaP and PC-3 cells pre-treated with SKQ1 followed by DCEM1, MTT assay): inhibited DCEM1—induced cell death

SMILES: CC(=O)O[C@@]12CO[C@@H]1C[C@H](O)[C@@]1(C)C(=O)[C@H](O)C3=C(C)[C@@H](OC(=O)[C@H](O)[C@@H](NC(=O)OC(C)(C)C)c4ccccc4)C[C@@](O)([C@@H](OC(=O)c4ccccc4)[C@H]21)C3(C)C [docetaxel]
cell death induction in HSP60-silenced cells compared to mock cells (HSP60-silenced cells): more efficacious

SMILES: NC(=O)c1ncn([C@@H]2O[C@H](CO)[C@@H](O)[C@H]2O)c1O [mizoribine, reference compound]
mitochondrial chaperonin activity [1]: significantly inhibited
